# Laboratory results as given in article PMC7179653 (Antimicrobial Agents and Chemotherapy, 2020).
# How the values were obtained:
# [1] = MAD study: safety and tolerability (TEAEs, laboratory safety tests); assay type: in vivo, human; details: for TEAE: Catheter site pain / TEAE: Diarrhea / TEAE: Ecchymosis / TEAE: Headache / TEAE: Infusion site extravasation / TEAE: Injection site erythema / TEAE: Injection site extravasation / TEAE: Injection site hemorrhage / TEAE: Injection site injury / TEAE: Injection site pain / TEAE: Medical device site erythema (erythema at the ECG patch sites) / TEAE: Nausea / TEAE: Phlebitis / TEAE: Scratch / TEAE: Vessel puncture site hemorrhage / Withdrawn due to AE / ≥1 TEAE / ≥1 drug-related TEAE / ≥1 serious TEAE: n = 6
# Experimental: The MAD study consisted of three parts (Fig. 1). […] Participants were enrolled in two sequential cohorts (cohort 1, followed by cohort 2). […] Participants were also enrolled in two sequential cohorts (cohort 3, followed by cohort 4). […] A washout period of approximately 24 h between treatments was provided. A sentinel dosing strategy was employed in both studies. […] In all cohorts, escalation to the next dose occurred after a safety review of the previous cohort. In the MAD study, sentinel dosing was performed in part 3, wherein participants were evaluated for safety up to 24 h after administration of the first drug combination (or placebo) on day 3, prior to enrolling additional participants. Safety assessments included monitoring of AEs, laboratory safety tests (hematology, serum chemistry, and urinalysis), 12-lead ECG (discrete recordings and 24-h Holter recording), and vital signs (blood pressure, pulse rate, and body temperature). In the SAD study, safety assessments were performed predose at screening, at day 1, postdose periodically on days 1, 2, and 7 (follow-up), and at early withdrawal, if relevant. […] In the MAD study, safety assessments were done predose at screening, at day 2, postdose periodically on days 1, 2, 4, 7, and 8, on days 13 to 15 (follow-up), and at early withdrawal, if relevant. […] On all other days, a single predose sample was collected for pharmacokinetic evaluation prior to the morning infusion. Blood was collected into lithium-heparin tubes and stored at a nominal –80°C temperature until analysis.
# [2] = Drug-drug interaction analysis nacubactam/meropenem (ANCOVA, geometric mean ratios); assay type: in vivo, human; details: nacubactam 2,000 mg single dose, 90% CI
# Experimental: All participants in the active group received a single 2,000-mg dose of both drugs on day 3 and q8h on days 4 to 8, with a final single dose of both drugs on the morning of day 9. A washout period of approximately 24 h between treatments was provided.
# [3] = MAD parts 1 and 2, 8,000 mg (single dose)
smiles,measurement,setting,value
NCCONC(=O)[C@@H]1CC[C@@H]2CN1C(=O)N2OS(=O)(=O)O [Nacubactam],participants reporting AEs,"[1]; MAD monotherapy phase (parts 1 and 2), 13 of the 24 participants",54.2%
same,total number of AEs,"[1]; MAD monotherapy phase (parts 1 and 2), 24 participants",48
same,TEAE: Catheter site pain,"[1]; MAD parts 1 and 2, 1,000 mg",1/1
same,TEAE: Diarrhea,"[1]; MAD parts 1 and 2, 1,000 mg",0 n/E
same,TEAE: Ecchymosis,"[1]; MAD parts 1 and 2, 1,000 mg",1/1
same,TEAE: Headache,"[1]; MAD parts 1 and 2, 1,000 mg",1/1
same,TEAE: Infusion site extravasation,"[1]; MAD parts 1 and 2, 1,000 mg",1/1
same,TEAE: Injection site erythema,"[1]; MAD parts 1 and 2, 1,000 mg",1/1
same,TEAE: Injection site extravasation,"[1]; MAD parts 1 and 2, 1,000 mg",0 n/E
same,TEAE: Injection site hemorrhage,"[1]; MAD parts 1 and 2, 1,000 mg",0 n/E
same,TEAE: Injection site injury,"[1]; MAD parts 1 and 2, 1,000 mg",0 n/E
same,TEAE: Injection site pain,"[1]; MAD parts 1 and 2, 1,000 mg",0 n/E
same,TEAE: Medical device site erythema (erythema at the ECG patch sites),"[1]; MAD parts 1 and 2, 1,000 mg",0 n/E
same,TEAE: Nausea,"[1]; MAD parts 1 and 2, 1,000 mg",0 n/E
same,TEAE: Phlebitis,"[1]; MAD parts 1 and 2, 1,000 mg",0 n/E
same,TEAE: Scratch,"[1]; MAD parts 1 and 2, 1,000 mg",0 n/E
same,TEAE: Vessel puncture site hemorrhage,"[1]; MAD parts 1 and 2, 1,000 mg",0 n/E
same,Withdrawn due to AE,"[1]; MAD parts 1 and 2, 1,000 mg",0 n
same,≥1 TEAE,"[1]; MAD parts 1 and 2, 1,000 mg",4/8
same,≥1 drug-related TEAE,"[1]; MAD parts 1 and 2, 1,000 mg",2/2
same,≥1 serious TEAE,"[1]; MAD parts 1 and 2, 1,000 mg",0 n
same,TEAE: Catheter site pain,"[1]; MAD parts 1 and 2, 2,000 mg",0 n/E
same,TEAE: Diarrhea,"[1]; MAD parts 1 and 2, 2,000 mg",0 n/E
same,TEAE: Ecchymosis,"[1]; MAD parts 1 and 2, 2,000 mg",0 n/E
same,TEAE: Headache,"[1]; MAD parts 1 and 2, 2,000 mg",0 n/E
same,TEAE: Infusion site extravasation,"[1]; MAD parts 1 and 2, 2,000 mg",0 n/E
same,TEAE: Injection site erythema,"[1]; MAD parts 1 and 2, 2,000 mg",0 n/E
same,TEAE: Injection site extravasation,"[1]; MAD parts 1 and 2, 2,000 mg",1/1
same,TEAE: Injection site hemorrhage,"[1]; MAD parts 1 and 2, 2,000 mg",0 n/E
same,TEAE: Injection site injury,"[1]; MAD parts 1 and 2, 2,000 mg",0 n/E
same,TEAE: Injection site pain,"[1]; MAD parts 1 and 2, 2,000 mg",0 n/E
same,TEAE: Medical device site erythema (erythema at the ECG patch sites),"[1]; MAD parts 1 and 2, 2,000 mg",0 n/E
same,TEAE: Nausea,"[1]; MAD parts 1 and 2, 2,000 mg",0 n/E
same,TEAE: Phlebitis,"[1]; MAD parts 1 and 2, 2,000 mg",0 n/E
same,TEAE: Scratch,"[1]; MAD parts 1 and 2, 2,000 mg",0 n/E
same,TEAE: Vessel puncture site hemorrhage,"[1]; MAD parts 1 and 2, 2,000 mg",0 n/E
same,Withdrawn due to AE,"[1]; MAD parts 1 and 2, 2,000 mg",0 n
same,≥1 TEAE,"[1]; MAD parts 1 and 2, 2,000 mg",2/3
same,≥1 drug-related TEAE,"[1]; MAD parts 1 and 2, 2,000 mg",2/2
same,≥1 serious TEAE,"[1]; MAD parts 1 and 2, 2,000 mg",0 n
same,TEAE: Catheter site pain,"[1]; MAD parts 1 and 2, 4,000 mg",0 n/E
same,TEAE: Diarrhea,"[1]; MAD parts 1 and 2, 4,000 mg",0 n/E
same,TEAE: Ecchymosis,"[1]; MAD parts 1 and 2, 4,000 mg",0 n/E
same,TEAE: Headache,"[1]; MAD parts 1 and 2, 4,000 mg",1/1
same,TEAE: Infusion site extravasation,"[1]; MAD parts 1 and 2, 4,000 mg",0 n/E
same,TEAE: Injection site erythema,"[1]; MAD parts 1 and 2, 4,000 mg",1/1
same,TEAE: Injection site extravasation,"[1]; MAD parts 1 and 2, 4,000 mg",1/1
same,TEAE: Injection site hemorrhage,"[1]; MAD parts 1 and 2, 4,000 mg",2/2
same,TEAE: Injection site injury,"[1]; MAD parts 1 and 2, 4,000 mg",2/2
same,TEAE: Injection site pain,"[1]; MAD parts 1 and 2, 4,000 mg",3/3
same,TEAE: Medical device site erythema (erythema at the ECG patch sites),"[1]; MAD parts 1 and 2, 4,000 mg",4/4
same,TEAE: Nausea,"[1]; MAD parts 1 and 2, 4,000 mg",0 n/E
same,TEAE: Phlebitis,"[1]; MAD parts 1 and 2, 4,000 mg",0 n/E
same,TEAE: Scratch,"[1]; MAD parts 1 and 2, 4,000 mg",1/1
same,TEAE: Vessel puncture site hemorrhage,"[1]; MAD parts 1 and 2, 4,000 mg",2/2
same,Withdrawn due to AE,"[1]; MAD parts 1 and 2, 4,000 mg",0 n
same,≥1 TEAE,"[1]; MAD parts 1 and 2, 4,000 mg",6/36
same,≥1 drug-related TEAE,"[1]; MAD parts 1 and 2, 4,000 mg",3/3
same,≥1 serious TEAE,"[1]; MAD parts 1 and 2, 4,000 mg",0 n
same,TEAE: Catheter site pain,[1]; [3],0 n/E
same,TEAE: Diarrhea,[1]; [3],0 n/E
same,TEAE: Ecchymosis,[1]; [3],0 n/E
same,TEAE: Headache,[1]; [3],0 n/E
same,TEAE: Infusion site extravasation,[1]; [3],0 n/E
same,TEAE: Injection site erythema,[1]; [3],0 n/E
same,TEAE: Injection site extravasation,[1]; [3],0 n/E
same,TEAE: Injection site hemorrhage,[1]; [3],0 n/E
same,TEAE: Injection site injury,[1]; [3],0 n/E
same,TEAE: Injection site pain,[1]; [3],0 n/E
same,TEAE: Medical device site erythema (erythema at the ECG patch sites),[1]; [3],0 n/E
same,TEAE: Nausea,[1]; [3],0 n/E
same,TEAE: Phlebitis,[1]; [3],0 n/E
same,TEAE: Scratch,[1]; [3],0 n/E
same,TEAE: Vessel puncture site hemorrhage,[1]; [3],0 n/E
same,Withdrawn due to AE,[1]; [3],0 n
same,≥1 TEAE,[1]; [3],1/1
same,≥1 drug-related TEAE,[1]; [3],0 n/E
same,≥1 serious TEAE,[1]; [3],0 n
same,tolerability,"[1]; all single doses up to 8,000 mg and multiple doses up to 4,000 mg q8h",well tolerated
same,serious AEs,"[1]; alone (50 to 8,000 mg) or coadministered with meropenem (2,000 mg each), both studies",no serious AEs were reported
same,effect on kidney function,"[1]; nacubactam alone, validated measures of renal function and exploratory urine kidney biomarkers",no significant effects on kidney function
same,"CLR GMR, monotherapy vs combination with meropenem",[2]; 0.85 to 1.07,0.95
same,"Vss GMR, monotherapy vs combination with meropenem",[2]; 0.87 to 1.11,0.98
